According to the NIST ThermoML archive (doi:10.1021/je400858t):
± gives the expanded uncertainty stated by the source.

Assays:
[1] = for mass density / thermal conductivity / viscosity: 101.33 kPa, Liquid; for mass density: Vibrating tube method; for thermal conductivity: Parallel plate method; for viscosity: Cone and plate viscometry; for Glass transition temperature: DTA
[2] = molar heat capacity at constant pressure; settings: 101.33 kPa, Liquid, Small sample (50 mg) DSC

SMILES | thermal conductivity ([1]; 300 K) | thermal conductivity ([1]; 375 K) | viscosity ([1]; 283 K) | viscosity ([1]; 293 K) | viscosity ([1]; 298 K) | viscosity ([1]; 303 K) | viscosity ([1]; 313 K) | viscosity ([1]; 323 K) | viscosity ([1]; 333 K) | viscosity ([1]; 343 K) | Glass transition temperature [1] | also measured
CCCCCC[n+]1ccn(C)c1.O=S(=O)([N-]S(=O)(=O)C(F)(F)F)C(F)(F)F | 0.12 ± 0.01 W/m/K | 0.12 ± 0.01 W/m/K | – | – | – | – | – | – | – | – | – | mass density ([1]; 283 K): 1385.63 ± 4.2 kg/m3; mass density ([1]; 293 K): 1376.5 ± 4.2 kg/m3; mass density ([1]; 303 K): 1367.38 ± 4.1 kg/m3; mass density ([1]; 313 K): 1358.3 ± 4.1 kg/m3; mass density ([1]; 323 K): 1349.27 ± 4.1 kg/m3; mass density ([1]; 333 K): 1340.34 ± 4 kg/m3; mass density ([1]; 343 K): 1331.41 ± 4 kg/m3; mass density ([1]; 353 K): 1322.54 ± 4 kg/m3; mass density ([1]; 363 K): 1313.73 ± 4 kg/m3
CCOP(=O)([O-])OCC.CCn1cc[n+](C)c1 [1-ethyl-3-methylimidazolium diethyl phosphate] | 0.19 ± 0.02 W/m/K | 0.19 ± 0.02 W/m/K | 1280 ± 150 mPa·s | 580 ± 65 mPa·s | 410 ± 44 mPa·s | 300 ± 30 mPa·s | 168 ± 17 mPa·s | 101 ± 10 mPa·s | 66 ± 7 mPa·s | 45 ± 5 mPa·s | -66 ± 2 °C | molar heat capacity at constant pressure ([2]; 298 K): 459.81 ± 47 J/K/mol; molar heat capacity at constant pressure ([2]; 303 K): 465.1 ± 47 J/K/mol; molar heat capacity at constant pressure ([2]; 308 K): 467.74 ± 47 J/K/mol; molar heat capacity at constant pressure ([2]; 313 K): 470.38 ± 48 J/K/mol; molar heat capacity at constant pressure ([2]; 318 K): 475.67 ± 48 J/K/mol; molar heat capacity at constant pressure ([2]; 323 K): 478.31 ± 48 J/K/mol; molar heat capacity at constant pressure ([2]; 328 K): 480.95 ± 49 J/K/mol; molar heat capacity at constant pressure ([2]; 333 K): 486.24 ± 49 J/K/mol; molar heat capacity at constant pressure ([2]; 338 K): 488.88 ± 49 J/K/mol; molar heat capacity at constant pressure ([2]; 343 K): 494.16 ± 50 J/K/mol
CCn1cc[n+](C)c1.CS(=O)(=O)[O-] [1-ethyl-3-methylimidazolium methanesulfonate] | 0.21 ± 0.02 W/m/K | 0.21 ± 0.02 W/m/K | 450 ± 49 mPa·s | 210 ± 22 mPa·s | 155 ± 16 mPa·s | 117 ± 12 mPa·s | 70 ± 7 mPa·s | 45 ± 5 mPa·s | 31 ± 3 mPa·s | 23 ± 2 mPa·s | -62 ± 2 °C | –
CCn1cc[n+](C)c1.N#C[S-] [1-ethyl-3-methylimidazolium thiocyanate] | 0.21 ± 0.02 W/m/K | 0.21 ± 0.02 W/m/K | – | – | – | – | – | – | – | – | -94 ± 2 °C | –
CCn1cc[n+](C)c1.O=C([O-])C(F)(F)F [1-ethyl-3-methylimidazolium trifluoroacetate] | 0.17 ± 0.01 W/m/K | 0.17 ± 0.01 W/m/K | – | – | – | – | – | – | – | – | – | –
CCn1cc[n+](C)c1.O=S(=O)([O-])C(F)(F)F [1-ethyl-3-methylimidazolium trifluoromethanesulfonate] | 0.16 ± 0.01 W/m/K | 0.16 ± 0.01 W/m/K | – | – | – | – | – | – | – | – | – | –
